# What was measured:
# [1] = tested on: Akt phosphorylated at Thr308 in PC-3 cells; test: Cellular assay: phosphorylation of Akt at Thr308 in PC-3 cells (MSD ELISA); format: cell-based; conditions: Homo sapiens, PC-3, 1 h, PC-3 cells, 60 min compound incubation, MSD ELISA; read-out: IC50 pAkt_Thr308
# How it was run: (§1)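 Compound treatment of PC-3 cells lasted 60 min at 37° C (0.3% DMSO). Lysates were then applied to plates carrying capture antibodies for the relevant phospho-site, and bound Akt was detected with an electrochemiluminescent anti-total Akt antibody; IC50s derive from five-point curves.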
# [2] = tested on: Akt phosphorylated at Ser473 in PC-3 cells; test: Cellular assay: phosphorylation of Akt at Ser473 in PC-3 cells (MSD ELISA); format: cell-based; conditions: Homo sapiens, PC-3, 1 h, PC-3 cells, 60 min compound incubation, MSD ELISA; read-out: IC50 pAkt_S473
# How it was run: as §1
# PI3Kβ = molecular target: T1, PI3Kβ (Homo sapiens, UniProt P42338); test: Enzyme binding assay (KINOMEscan, DiscoveRx); conditions: PIK3Cβ_h, read-out: Kd PIK3Cβ_h
# T1 construct: purchased DiscoveRx Corporation, San Diego (contract service, KINOMEscan)
# T1 sequence (P42338 whole entry): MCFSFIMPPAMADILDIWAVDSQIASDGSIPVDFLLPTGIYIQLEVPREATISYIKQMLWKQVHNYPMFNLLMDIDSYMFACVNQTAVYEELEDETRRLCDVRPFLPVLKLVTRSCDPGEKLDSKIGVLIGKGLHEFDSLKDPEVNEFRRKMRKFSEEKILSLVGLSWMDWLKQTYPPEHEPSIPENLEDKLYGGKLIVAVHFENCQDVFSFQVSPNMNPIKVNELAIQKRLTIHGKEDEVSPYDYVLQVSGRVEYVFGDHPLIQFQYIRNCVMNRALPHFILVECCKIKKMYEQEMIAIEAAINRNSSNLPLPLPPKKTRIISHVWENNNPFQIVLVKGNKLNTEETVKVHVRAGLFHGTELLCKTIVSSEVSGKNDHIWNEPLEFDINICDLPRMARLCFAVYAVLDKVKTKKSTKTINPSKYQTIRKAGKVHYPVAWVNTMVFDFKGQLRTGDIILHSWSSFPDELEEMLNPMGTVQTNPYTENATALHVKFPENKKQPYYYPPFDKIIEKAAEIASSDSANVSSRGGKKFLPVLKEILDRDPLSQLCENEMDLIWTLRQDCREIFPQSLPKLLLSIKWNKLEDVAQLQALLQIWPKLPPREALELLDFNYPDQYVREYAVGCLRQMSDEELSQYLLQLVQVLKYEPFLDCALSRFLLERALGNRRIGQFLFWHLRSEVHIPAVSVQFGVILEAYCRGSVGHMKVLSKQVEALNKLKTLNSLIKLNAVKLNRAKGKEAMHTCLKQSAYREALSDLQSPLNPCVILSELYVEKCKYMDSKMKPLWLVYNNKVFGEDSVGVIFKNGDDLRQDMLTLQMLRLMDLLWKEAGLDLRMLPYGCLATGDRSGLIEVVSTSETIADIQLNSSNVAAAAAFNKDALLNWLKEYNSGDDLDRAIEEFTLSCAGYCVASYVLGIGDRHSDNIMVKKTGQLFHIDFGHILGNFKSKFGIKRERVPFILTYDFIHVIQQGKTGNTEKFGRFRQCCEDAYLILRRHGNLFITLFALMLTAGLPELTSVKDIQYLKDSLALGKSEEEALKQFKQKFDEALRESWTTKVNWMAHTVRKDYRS
# How it was run: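 Compounds are profiled for binding to the kinase using KINOMEscan. The affinity is then reported as an inhibitor Kd in nanomolar units.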
# kinase enzymes [3] = molecular target: T2, kinase enzymes (Homo sapiens, UniProt P48736); test: Enzyme binding assay (KINOMEscan, DiscoveRx), further kinases of Table A; conditions: PIK3Cγ_h
# T2 construct: purchased DiscoveRx Corporation, San Diego (contract service, KINOMEscan)
# T2 sequence (P48736 whole entry): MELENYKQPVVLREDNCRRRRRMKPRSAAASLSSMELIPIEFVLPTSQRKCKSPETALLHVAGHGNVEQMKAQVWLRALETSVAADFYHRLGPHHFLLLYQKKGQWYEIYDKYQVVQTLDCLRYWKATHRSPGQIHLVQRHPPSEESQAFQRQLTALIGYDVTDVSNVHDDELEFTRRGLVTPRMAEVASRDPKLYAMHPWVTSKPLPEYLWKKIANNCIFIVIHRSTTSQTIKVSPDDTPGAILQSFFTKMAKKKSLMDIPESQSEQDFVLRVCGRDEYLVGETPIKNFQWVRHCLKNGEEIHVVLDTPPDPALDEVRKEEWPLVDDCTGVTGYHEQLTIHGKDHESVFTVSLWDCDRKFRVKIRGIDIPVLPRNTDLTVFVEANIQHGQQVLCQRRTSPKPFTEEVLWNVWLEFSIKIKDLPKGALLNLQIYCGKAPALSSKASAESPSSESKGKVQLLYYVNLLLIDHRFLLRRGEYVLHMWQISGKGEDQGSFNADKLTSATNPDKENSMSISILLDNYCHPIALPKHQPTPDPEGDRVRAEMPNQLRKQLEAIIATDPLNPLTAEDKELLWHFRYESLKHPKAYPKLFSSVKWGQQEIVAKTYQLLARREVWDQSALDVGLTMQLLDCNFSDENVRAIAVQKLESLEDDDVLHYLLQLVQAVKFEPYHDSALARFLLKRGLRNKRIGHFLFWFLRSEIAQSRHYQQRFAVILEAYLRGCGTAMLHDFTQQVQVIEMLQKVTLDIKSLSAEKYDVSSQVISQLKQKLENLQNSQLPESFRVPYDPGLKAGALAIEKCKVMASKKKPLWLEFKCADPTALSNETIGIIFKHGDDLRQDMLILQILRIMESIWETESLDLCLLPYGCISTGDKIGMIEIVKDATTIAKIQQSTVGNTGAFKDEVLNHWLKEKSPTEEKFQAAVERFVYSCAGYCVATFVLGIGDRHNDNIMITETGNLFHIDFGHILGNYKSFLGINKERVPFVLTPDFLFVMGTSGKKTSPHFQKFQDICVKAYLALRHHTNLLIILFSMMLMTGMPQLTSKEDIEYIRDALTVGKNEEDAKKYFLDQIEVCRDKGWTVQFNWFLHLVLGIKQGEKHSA
# How it was run: (§2)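 Compounds were profiled by KINOMEscan to obtain kinase binding affinities.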
# kinase enzymes [4] = molecular target: T3, kinase enzymes (Homo sapiens, UniProt P42336); test: as above; conditions: PIK3Cα_h
# T3 construct: purchased DiscoveRx Corporation, San Diego (contract service, KINOMEscan)
# T3 sequence (P42336 whole entry): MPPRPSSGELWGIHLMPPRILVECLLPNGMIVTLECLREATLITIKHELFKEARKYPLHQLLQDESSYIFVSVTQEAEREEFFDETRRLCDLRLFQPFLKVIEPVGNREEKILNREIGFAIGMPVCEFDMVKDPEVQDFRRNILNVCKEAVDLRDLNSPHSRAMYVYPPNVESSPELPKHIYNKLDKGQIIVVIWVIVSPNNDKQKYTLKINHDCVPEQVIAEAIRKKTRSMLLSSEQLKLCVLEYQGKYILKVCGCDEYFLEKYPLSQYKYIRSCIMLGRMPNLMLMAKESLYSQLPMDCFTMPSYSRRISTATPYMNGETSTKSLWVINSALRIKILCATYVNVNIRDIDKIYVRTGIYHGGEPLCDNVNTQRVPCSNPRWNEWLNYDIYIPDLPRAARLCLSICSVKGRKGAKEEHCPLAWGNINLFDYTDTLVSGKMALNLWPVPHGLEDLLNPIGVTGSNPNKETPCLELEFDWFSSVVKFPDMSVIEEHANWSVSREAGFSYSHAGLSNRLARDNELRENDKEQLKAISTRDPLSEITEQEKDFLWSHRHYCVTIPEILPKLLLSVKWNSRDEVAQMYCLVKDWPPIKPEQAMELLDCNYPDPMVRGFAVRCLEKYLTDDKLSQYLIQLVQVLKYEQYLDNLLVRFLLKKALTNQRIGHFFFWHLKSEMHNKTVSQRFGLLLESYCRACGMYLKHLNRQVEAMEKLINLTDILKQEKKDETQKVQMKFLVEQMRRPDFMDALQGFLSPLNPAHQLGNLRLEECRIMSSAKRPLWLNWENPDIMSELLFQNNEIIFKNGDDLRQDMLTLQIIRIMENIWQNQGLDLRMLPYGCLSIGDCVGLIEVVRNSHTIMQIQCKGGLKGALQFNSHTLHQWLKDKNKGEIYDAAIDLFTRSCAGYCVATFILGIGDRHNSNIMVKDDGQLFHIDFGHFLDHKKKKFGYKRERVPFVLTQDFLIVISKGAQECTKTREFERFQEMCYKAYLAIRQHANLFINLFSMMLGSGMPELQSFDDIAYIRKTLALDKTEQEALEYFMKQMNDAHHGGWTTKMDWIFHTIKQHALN
# How it was run: as §2
# kinase enzymes [5] = molecular target: T4, kinase enzymes (Homo sapiens, UniProt P42345); test: as above; conditions: MTOR_h
# T4 construct: purchased DiscoveRx Corporation, San Diego (contract service, KINOMEscan)
# How it was run: as §2
# PI3Kδ = molecular target: T5, PI3Kδ (Homo sapiens, UniProt O00329); test: Enzyme binding assay (KINOMEscan, DiscoveRx); conditions: PIK3Cδ_h
# T5 construct: purchased DiscoveRx Corporation, San Diego (contract service, KINOMEscan)
# T5 sequence (O00329 1-1044): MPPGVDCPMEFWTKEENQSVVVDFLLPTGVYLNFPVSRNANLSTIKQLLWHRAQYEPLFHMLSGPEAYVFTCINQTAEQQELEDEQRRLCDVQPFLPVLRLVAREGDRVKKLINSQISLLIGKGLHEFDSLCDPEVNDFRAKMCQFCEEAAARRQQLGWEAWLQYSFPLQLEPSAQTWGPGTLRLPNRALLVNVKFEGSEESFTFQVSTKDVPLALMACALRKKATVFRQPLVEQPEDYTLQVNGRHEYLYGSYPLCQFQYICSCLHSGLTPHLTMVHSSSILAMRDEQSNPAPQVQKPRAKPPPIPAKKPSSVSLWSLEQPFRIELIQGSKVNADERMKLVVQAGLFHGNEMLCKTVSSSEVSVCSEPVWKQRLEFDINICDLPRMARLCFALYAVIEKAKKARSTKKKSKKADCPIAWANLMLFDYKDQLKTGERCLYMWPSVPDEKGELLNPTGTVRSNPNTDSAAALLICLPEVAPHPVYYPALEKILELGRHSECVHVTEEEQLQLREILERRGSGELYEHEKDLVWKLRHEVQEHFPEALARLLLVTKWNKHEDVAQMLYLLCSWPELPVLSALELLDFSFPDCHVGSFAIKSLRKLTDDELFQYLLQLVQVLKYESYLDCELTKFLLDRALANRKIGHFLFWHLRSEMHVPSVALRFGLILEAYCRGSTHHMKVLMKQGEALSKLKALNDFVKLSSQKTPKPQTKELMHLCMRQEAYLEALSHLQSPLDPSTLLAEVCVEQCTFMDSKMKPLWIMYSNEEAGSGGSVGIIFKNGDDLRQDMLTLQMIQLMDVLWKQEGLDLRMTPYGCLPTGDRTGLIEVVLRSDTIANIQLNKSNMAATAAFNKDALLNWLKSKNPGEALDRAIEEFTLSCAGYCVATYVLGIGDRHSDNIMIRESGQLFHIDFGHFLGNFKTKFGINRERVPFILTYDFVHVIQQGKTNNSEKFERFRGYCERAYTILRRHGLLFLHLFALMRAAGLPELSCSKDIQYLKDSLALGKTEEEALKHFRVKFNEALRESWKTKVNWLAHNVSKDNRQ
# How it was run: as §2
SMILES,melting point [°C],IC50 [1] [nM],IC50 [2] [nM],Kd (PI3Kβ) [nM],Kd (kinase enzymes [3]) [nM],Kd (kinase enzymes [4]) [nM],Kd (kinase enzymes [5]) [nM],Kd (PI3Kδ) [nM]
CC(Nc1cc(F)cc(F)c1)c1cc(C(=O)NC(C)(C)CO)cc2ncc(N3CCOCC3)nc12 (stereo not drawn) [Compound 169],217,102,200,8,5370,4070,18600,1120
CC(Nc1cc(F)c(F)c(F)c1)c1cc(C(=O)O)cc2ncc(N3CCOCC3)nc12 (stereo not drawn) [Compound 170],285,> 513,> 513,5,2240,617,4370,288
CC(Nc1cc(F)cc(F)c1)c1cc(C(=O)N2CCN(CC(F)(F)F)CC2)cc2ncc(N3CCOCC3)nc12 (stereo not drawn) [Compound 171],125,102,155,3,> 30200,2190,> 30200,575
CC(Nc1cc(F)cc(F)c1)c1cc(CNCCS(C)(=O)=O)cc2ncc(N3CCOCC3)nc12 (stereo not drawn) [Compound 173],80,52,78,1,3550,832,24500,372
CC(Nc1cc(F)cc(F)c1)c1cc(C(=O)N(C)CCN(C)C)cc2ncc(N3CCOCC3)nc12 (stereo not drawn) [Compound 180],148,1,3,0.1,2190,891,> 30200,49
CC(Nc1cc(F)cc(F)c1)c1cc(C2=NC(C)(C)CO2)cc2ncc(N3CCOCC3)nc12 (stereo not drawn) [Compound 186],80,182,339,10,27500,6310,> 30200,1780
CC(Oc1cc(F)cc(F)c1)c1cc(C(=O)NCCO)cc2ncc(N3CCOCC3)nc12 (stereo not drawn) [Compound 198],171,200,> 513,22,15500,11200,> 30200,3160
COC(=O)c1cc(C(C)Oc2ccc(F)c(F)c2)c2nc(N3CCOCC3)cnc2c1 (stereo not drawn) [Compound 209],183,> 513,> 513,316,17000,> 30200,> 30200,11500
CC(Nc1cc(F)c(C(F)(F)F)c(F)c1)c1cc(C(=O)NCCO)cc2ncc(N3CCOCC3)nc12 (stereo not drawn) [Compound 223],200,> 513,> 513,4790,13800,> 30200,> 30200,> 30200
CNCCN(C)C(=O)c1cc(C(C)Nc2cc(F)c(C(F)(F)F)c(F)c2)c2nc(N3CCOCC3)cnc2c1 (stereo not drawn) [Compound 224],163,> 513,468,186,> 30200,27500,> 30200,4470
CC(C)NCCNC(=O)c1cc(C(C)Nc2cccc(F)c2)c2nc(N3CCOCC3)cnc2c1 (stereo not drawn) [Compound 226],158,13,20,1,5620,2570,28800,275
O=C(NCCO)c1cc(NCc2cccc(F)c2)c2nc(N3CCOCC3)cnc2c1 [Compound 230],218,141,145,12,18200,7080,12000,759
CC(Nc1cc(F)cc(F)c1)c1cc(C(=O)N2CCNC(C(F)(F)F)C2)cc2ncc(N3CCOCC3)nc12 (stereo not drawn) [Compound 237],80,11,20,1,9330,288,> 30200,138
CC(Nc1cc(F)cc(F)c1)c1cc(C(=O)NC2CN(CC(F)(F)F)C2)cc2ncc(N3CCOCC3)nc12 (stereo not drawn) [Compound 238],110,157,219,8,12300,5010,> 30200,2210
O=Cc1cc(C2CCCN2c2cc(F)cc(F)c2)c2nc(N3CCOCC3)cnc2c1 (stereo not drawn) [Compound 250],120,6,5,1,955,339,14500,219
CN(C)C(=O)c1cc(NCc2cc(F)cc(F)c2)c2nc(N3CCOCC3)cnc2c1 [Compound 278],158,178,295,8,15800,2090,19500,1740
CC(Nc1ccc(F)c(F)c1)c1cc(C(=O)NCCO)cc2ncc(N3CCOCC3)nc12 (stereo not drawn) [Compound 279],77,115,145,5,6460,5370,19100,372
CC(Nc1ccc(F)c(F)c1)c1cc(C(=O)NCCCO)cc2ncc(N3CCOCC3)nc12 (stereo not drawn) [Compound 280],164,158,~275,6,11200,5130,> 30200,427

# — patent US10526316B2, “Quinoxaline and pyridopyrazine derivatives as PI3Kβ inhibitors” (Janssen Pharmaceutica NV, priority 2015, dated 2020)
